Tests used:
Format in all cases: in vivo, human
[1] = tested on: patient at risk for COPD (No COPD); assay: Pulmonary function during moderate sub-maximum step exercise, patient without COPD; details: Patient 5, No COPD, post ribose
Experimental: Four patients presenting with chronic obstructive pulmonary disease were tested for various parameters of pulmonary function as described in Example 1. Baseline measurements of pulmonary function were taken during moderate, sub-maximum step exercise. Patients were instructed to self-administer five grams of ribose four times a day. After eight weeks, pulmonary function was again measured during moderate exercise.
In Table II, the units are: • VD=volume of the dead space; VT=tidal volume in liters per minute. The ratio VD/VT can be expressed as ml/ml. This ratio is taken at the nadir of sub-maximal exercise and is a measure of lung function. • VT=tidal volume in liters; RR=breaths per minute • VT=volume in ml at each inspiration, ti=inspiratory time. VT/ti is the inspiratory drive (effort) in ml/second. • VT=tidal volume in liters at constant body temperature pressure status. • VCO2=liters/minute of expired CO2 • RR=breaths per minute. VT/RR=tidal volume in liters per breath.
Table II illustrates that no one measurement or ratio is predictive of the clinical state of COPD and response to ribose administration. […] One goal of this study was to determine whether the progression of pulmonary dysfunction in such a patient could be slowed or halted over time.

[2] = tested on: representative patients (coronary artery disease / CHF cohort); assay: Exercise testing of representative individual patients (treadmill, step test, drug-driven simulated exercise)
Experimental: Patients were tested on a treadmill with varying grade, on a step apparatus or with simulated drug-driven exercise simulation for those patients unable to exercise physically. VCO2 and VO2max before and after exercise was measured and VE calculated. The methodology is described in Circulation: www.circulationaha.org Ponikowski et al. Ventilation in Chronic Heart Failure, Feb. 20, 2001, the teachings of which are incorporated by reference. Ventilatory efficiency, VO2 and O2 pulse were assessed up to the anaerobic threshold at baseline and again at eight weeks. Weber function class was also determined based on VO2 at the anaerobic threshold (AT). The results for the first group of test patients (2 females and 13 males) are summarized in Table I. “R” designates D-ribose. Each patient acted as his or her control, that is, results after ribose administration were compared to baseline results. VO2 efficiency is the O2 uptake per unit time. O2 pulse is a measurement of the heart stroke volume. A person, normal weight, was diagnosed with blockage of the coronary arteries with stable angina, not yet progressing to congestive heart failure. […] Using a treadmill, with incremental increase in grade, their VO2 max and VCO2 were determined. Following eight weeks of ribose administration of five grams four times a day, they were retested under the same conditions. Plotting a regression analysis of VO2 versus log V, the VE slope decreased from 60.2 to 45.5. It is considered that a slope of 36.9 or below indicates impairment of ventilatory efficiency. Therefore, while this patient was not in the normal range of ventilatory efficiency, improvement was marked. A second patient, a person of normal weight, self administered five grams of ribose four times a day for eight weeks. At the beginning of the study, their VE slope was 55.7 following nine minutes of submaximal exercise. At the end of the study, their VE slope had decreased to 45.2. This patient also was tested on the step test. The initial test was rated as “good” and the second test was subjectively considered to be “great.” A third patient, an obese person, was on nasal oxygen and was tested with drug-driven simulated exercise. […] Although their VE was now in the normal range, the test results, although improved were not subjectively rated as “good”.

[3] = tested on: patients presenting with chronic obstructive pulmonary disease; assay: Pulmonary function during moderate sub-maximum step exercise, COPD patients; details: for VD/VT: post ribose five grams four times a day; for VD/VT / VT/RR / VCO2 / VTBTPS (tidal volume) / VT/ti (inspiratory drive): eight weeks; for VT/RR / VCO2 / VTBTPS (tidal volume) / VT/ti (inspiratory drive): post ribose
Experimental: Four patients presenting with chronic obstructive pulmonary disease were tested for various parameters of pulmonary function as described in Example 1. Baseline measurements of pulmonary function were taken during moderate, sub-maximum step exercise. Patients were instructed to self-administer five grams of ribose four times a day. After eight weeks, pulmonary function was again measured during moderate exercise. In Table II, the units are: • VD=volume of the dead space; VT=tidal volume in liters per minute. The ratio VD/VT can be expressed as ml/ml. This ratio is taken at the nadir of sub-maximal exercise and is a measure of lung function. • VT=tidal volume in liters; RR=breaths per minute • VT=volume in ml at each inspiration, ti=inspiratory time. VT/ti is the inspiratory drive (effort) in ml/second. • VT=tidal volume in liters at constant body temperature pressure status. • VCO2=liters/minute of expired CO2 • RR=breaths per minute. VT/RR=tidal volume in liters per breath.

[4] = tested on: patient with rheumatoid lung; assay: Ventilatory efficiency in rheumatoid lung, case report; details: person, ribose approximately five grams two to three times a day, within a month
From the text: A person developed rheumatoid arthritis in the 1970's. By 1988, they began to show symptoms of rheumatoid lung, began the use of rescue inhalers such as Albuterol® inhaler and was hospitalized for respiratory distress three times in the next five years. At that point, they were prescribed Advair® steroid inhaler, which relieved their symptoms considerably, although they still required a rescue inhaler several times per week. In 2002, they began the administration of ribose, approximately five grams two to three times a day.

patients having CHF = assay: Ventilatory efficiency during cardiopulmonary exercise testing, CHF patients
Experimental: Ventilatory efficiency has been critically shown to be the most powerful, independent predictor of CHF patient survival. Ventilatory efficiency (VE) is determined by the linear, submax relationship between Minute Ventilation (V) and carbon dioxide output (VCO2), V being on the “y axis” and the linear slope being determined using the linear regression model, y=a+bx, “b” representing the slope. The steeper the slope, the worse the ventilation efficiency of the patient. As an exemplar cohort of patients with reduced ventilatory efficiency, patients suffering from CHF were recruited. Patients having CHF were selected according to the following criteria: • Male and female 48-84 years of age. • Ejection fraction 30-72% • NY Class III-IV (severe condition). • Test and control groups matched for pre-operative volume status, cardiac medication, measured risk assessment. The test group was administered D-ribose, 15 grams tid for eight weeks; the controls received 15 grams Dextrose tid. All patients in this group underwent repeated cardiopulmonary exercise using a four-minute sub-maximal step protocol. Patients were tested on a step apparatus. Others in the study were tested on a treadmill with varied grade or on drug-driven exercise simulation for those patients unable to use the other two devices. Symptom-limited peak exercise performance with at least 80-85% of age related maximal heart rate was attempted with each patient. Upper extremity blood pressure was obtained at every two minutes and also at peak exercise. Patients were tested on a treadmill with varying grade, on a step apparatus or with simulated drug-driven exercise simulation for those patients unable to exercise physically. VCO2 and VO2max before and after exercise was measured and VE calculated. The methodology is described in Circulation: www.circulationaha.org Ponikowski et al. Ventilation in Chronic Heart Failure, Feb. 20, 2001, the teachings of which are incorporated by reference. Ventilatory efficiency, VO2 and O2 pulse were assessed up to the anaerobic threshold at baseline and again at eight weeks. Weber function class was also determined based on VO2 at the anaerobic threshold (AT). The results for the first group of test patients (2 females and 13 males) are summarized in Table I. “R” designates D-ribose. Each patient acted as his or her control, that is, results after ribose administration were compared to baseline results. VO2 efficiency is the O2 uptake per unit time. O2 pulse is a measurement of the heart stroke volume.

[5] = FIG. 2, single patient, after eight weeks of ribose supplementation, during exercise

`O=C[C@H](O)[C@H](O)[C@H](O)CO` [D-ribose] gave a VT/RR ([1]; baseline 0.090) of 0.100 liters per breath, a VD/VT ([1]; baseline 0.212) of 0.221 ml/ml and a VCO2 ([1]; baseline 0.990) of 1.26 L/min. The “VTBTPS (tidal volume)” value ([1]; baseline 1.90) was 2.40 L, the “VT/ti (inspiratory drive)” value ([1]; baseline 1636) was 2232 mL/s and the VE slope ([2]; obese person on nasal oxygen, drug-driven simulated exercise, ribose five grams four times daily, eight weeks, baseline 63.0) was 35.2. For the same compound, the “need for nasal oxygen” value ([2]; obese person, ribose five grams four times daily, eight weeks) was “able to discontinue the oxygen”, the “time of simulated exercise” value ([2]; obese person, ribose five grams four times daily, eight weeks, baseline 7.43 minutes) was 11.44 min and the VE slope ([2]; person, coronary artery blockage with stable angina, treadmill, ribose five grams four times a day, eight weeks, baseline 60.2) was 45.5. For the same compound, the VE slope ([2]; person, nine minutes of submaximal exercise, ribose five grams four times a day, eight weeks, baseline 55.7) was 45.2, the “step test subjective rating” value ([2]; person, second test after eight weeks of ribose, initial test rated good) was “great” and the “slope of respiratory rate plotted against tidal volume” value ([3]; FIG. 1, single patient, after eight weeks of ribose supplementation) was “decreased slope”. The VE value [3, 5] was 42 L/min, the tidal volume [3, 5] was 0.9 L and the VD/VT ([3]; Patient 1 (asthmatic with COPD), nadir of sub-maximal exercise, baseline 0.304) was 0.253 ml/ml. For the same compound, the VT/RR ([3]; Patient 1, baseline 0.059) was 0.065 liters per breath, the VCO2 ([3]; Patient 1, baseline 1.038) was 1.050 L/min and the “VTBTPS (tidal volume)” value ([3]; Patient 1, baseline 1.54) was 1.92 L. The “VT/ti (inspiratory drive)” value ([3]; Patient 1, baseline 1492) was 1827 mL/s, the VD/VT ([3]; Patient 2 (COPD), baseline 0.439) was 0.303 ml/ml and the VT/RR ([3]; Patient 2, baseline 0.036) was 0056 liters per breath. The VCO2 ([3]; Patient 2, baseline 0.460) was 0.460 L/min, the “VTBTPS (tidal volume)” value ([3]; Patient 2, baseline 0.830) was 1.04 L and the “VT/ti (inspiratory drive)” value ([3]; Patient 2, baseline 779) was 752 mL/s. It also gave a VD/VT ([3]; Patient 3 (COPD), baseline 0.198) of 0.221 ml/ml, a VT/RR ([3]; Patient 3, baseline 0.041) of 0.046 liters per breath and a VCO2 ([3]; Patient 3, baseline 0.280) of 0.454 L/min. The “VTBTPS (tidal volume)” value ([3]; Patient 3, baseline 0.614) was 0.873 L, the “VT/ti (inspiratory drive)” value ([3]; Patient 3, baseline 373) was 706 mL/s and the VD/VT ([3]; Patient 4 (COPD), baseline 0.475) was 0.280 ml/ml. For the same compound, the VT/RR ([3]; Patient 4, baseline 0.013) was 0.018 liters per breath, the VCO2 ([3]; Patient 4, baseline 0.310) was 0.814 L/min and the “VTBTPS (tidal volume)” value ([3]; Patient 4, baseline 0.550) was 0.800 L. For the same compound, the “VT/ti (inspiratory drive)” value ([3]; Patient 4, baseline 937) was 1590 mL/s, the “use of rescue inhaler and exercise tolerance” value [4] was “able to discontinue the use of the rescue inhaler and to exercise more without breathlessness symptoms” and the VO2 uptake efficiency (patients having CHF; Post-R: D-ribose 15 grams tid for eight weeks, 2 females and 13 males, Pre-R 1.00 +/− 0.28, p < 0.028) was 1.30 +/− 0.28. For the same compound, the O2 pulse (patients having CHF; Post-R: D-ribose 15 grams tid for eight weeks, 2 females and 13 males, Pre-R 7.45 +/− 1.8, p < 0.05) was 9.04 +/− 1.9, the Ventilatory efficiency (patients having CHF; Post-R: D-ribose 15 grams tid for eight weeks, 2 females and 13 males, up to anaerobic threshold, Pre-R 50.6 +/− 9.8, p < 0.01) was 41.6 +/− 6.4 and the “improvement of VE” value (patients having CHF; after eight weeks of D-ribose versus baseline) was “about 20%”. The Weber functional class (patients having CHF; based on VO2 at the anaerobic threshold, several of the patients, after eight weeks) was “reclassified into a higher, that is, less severe, Weber functional class”.

Source: patent US20100099630A1, “Method for improving ventilatory efficiency” (priority 2004, published 2010)
